Measured values taken from patent US20060073154A1 (priority 2001, published 2006).

Columns and labels:
[1] = system: streptococcal strain D471 adherence to Detroit 562 pharyngeal cells; type: cell-based, S. pyogenes
[2] = system: strain JRS75 adherence to Detroit 562 pharyngeal cells; assay: Pharyngeal cell adherence assay with isogenic M-negative mutant; type: cell-based, S. pyogenes; settings: bacteria preincubated with sialic acid
Protocol: Pharyngeal cell adherence and invasion assay. Streptococcal adherence to and invasion of the human pharyngeal cell line, Detroit 562, was assayed by modification of a procedure described previously (Talbot, U. M., et al., Infect. Immun. 64:3772-3777, 1996). Overnight cultures of streptococci were pelleted by centrifugation and washed twice in sterile PBS. The cultures were resuspended in MEM and diluted to a final concentration of 5×10^7 CFU/ml, and 1 ml aliquots were inoculated into each well containing washed Detroit cell monolayers. At least 3 wells were used for each bacterial strain or culture condition. Following a 3 h incubation period with the bacteria at 37° C., the monolayers were washed three times in PBS.
For the bacterial invasion assay, 1 ml of MEM supplemented with penicillin (10 μg/ml) and gentamicin (200 μg/ml) was added to each well (to kill extracellular bacteria) and incubated for 1 h at 37° C. […] The total number of adherent streptococci was calculated as the difference between the total number of adherent and invasive bacteria and the number of invasive bacteria alone.
Effect of monosaccharides on streptococcal adherence to pharyngeal cells. The effect of various monosaccharides on streptococcal adherence to pharyngeal cell monolayers was assessed in inhibition assays. […]

`CC(=O)N[C@H]1[C@H]([C@H](O)[C@H](O)CO)O[C@@](O[C@H]2[C@@H](O)[C@@H](CO)O[C@@H](O[C@H]3[C@H](O)[C@@H](O)C(O)O[C@@H]3CO)[C@@H]2O)(C(=O)O)C[C@@H]1O` (stereo partly drawn) [3′SL, NeuAcα2-3Galβ1-4Glc] was tested. Which “effect on adherence of strain D471 to cultured pharyngeal cells” value [1] did it give?
Its value is “no significant effect”.

For `CC(=O)NC1C(O)CC(OCC2OC(OC3C(CO)OC(O)C(O)C3O)C(O)C(O)C2O)(C(=O)O)OC1C(O)C(O)CO` (stereo not drawn) [6′SL, NeuACα2-6Galβ1-4Glc], which “reduced binding of strain D471 to pharyngeal cells” value [1] is on record?
Its value is “approximately 85%”.

Which “effect on adherence of strain D471 to pharyngeal cells” value [1] does the source give for `CC(=O)N[C@H]1[C@H]([C@H](O)[C@H](O)CO)OC(O)(C(=O)O)C[C@@H]1O` (stereo partly drawn) [sialic acid, N-acetylneuraminic acid] here?
Its value is “significantly decreased”.

What about the “effect on adherence of JRS75 (M-negative mutant) to pharyngeal cells” value [2] of the same molecule?
The value was “not affected”.

With “transferrin: sialylated glycoprotein whose oligosaccharides terminate only in α2-6 linked sialic acid” as the molecule, how does the “reduced adherence of strain D471 to cultured pharyngeal cells” value [1] read?
Its value is “approximately 90%”.

B1: Fetuin: sialylated glycoprotein containing both α2-3 and α2-6 sialic acid linkages (protein, UniProt P12763 19-359, looked up)
Alpha-2-HS-glycoprotein: IPLDPVAGYKEPACDDPDTEQAALAAVDYINKHLPRGYKHTLNQIDSVKVWPRRPTGEVYDIEIDTLETTCHVLDPTPLANCSVRQQTQHAVEGDCDIHVLKQDGQFSVLFTKCDSSPDSAEDVRKLCPDCPLLAPLNDSRVVHAVEVALATFNAESNGSYLQLVEISRAQFVPLPVSVSVEFAVAATDCIAKEVVDPTKCNLLAEKQYGFCKGSVIQKALGGEDVRVTCTLFQTQPVIPQPQPDGAEAEAPSAVPDAAGPTPSAAGPPVASVVVGPSVVAVPLPLHRAHYDLRHTFSGVASVESSSGEAFHVGKTPIVGQPSIPGGPVRLCPGRIRYFKI
With B1 as the molecule, how does the “decrease of adherence of strain D471 to pharyngeal cells” value [1] read?
Its value is “approximately 30%”.
